Data from the NIST ThermoML archive (doi:10.1016/j.jct.2006.04.007).
Numbers after ± are expanded uncertainties.

Assay: mn = molality of the nth substance listed, in mol/kg
Conditions: 350 kPa, Liquid; for apparent molar heat capacity: Extra sensitive DSC

CNC(C)=O [N-methylacetamide] + O
Conditions	apparent molar heat capacity [J/K/mol]	mass density [kg/m3]
328.15 K, m1 = 0.2002	–	985.56 ± 0.38
328.15 K, m1 = 0.4	–	985.32 ± 0.39
328.15 K, m1 = 0.599	–	985.18 ± 0.39
328.15 K, m1 = 0.8028	–	985.04 ± 0.39
328.15 K, m1 = 1	–	984.85 ± 0.39
333.15 K, m1 = 0.015	260 ± 52	–
333.15 K, m1 = 0.04	265.7 ± 20	–
333.15 K, m1 = 0.07	267 ± 12	–
333.15 K, m1 = 0.1001	271.2 ± 8.4	–
333.15 K, m1 = 0.2002	271 ± 4.5	–
333.15 K, m1 = 0.4	267.55 ± 2.6	–
333.15 K, m1 = 0.599	274.8 ± 2.1	–
333.15 K, m1 = 0.8028	266.47 ± 1.7	–
333.15 K, m1 = 1	265.86 ± 1.5	–
338.15 K, m1 = 0.015	264 ± 52	–
338.15 K, m1 = 0.04	266.3 ± 20	–
338.15 K, m1 = 0.07	269.1 ± 12	–
338.15 K, m1 = 0.1001	272.8 ± 8.4	–
338.15 K, m1 = 0.2002	272.4 ± 4.5	–
338.15 K, m1 = 0.4	269.46 ± 2.6	–
338.15 K, m1 = 0.599	276.4 ± 2.1	–
338.15 K, m1 = 0.8028	268.26 ± 1.7	–
338.15 K, m1 = 1	267.6 ± 1.5	–
343.15 K, m1 = 0.015	268 ± 52	–
343.15 K, m1 = 0.04	267.1 ± 20	–
343.15 K, m1 = 0.07	270.8 ± 12	–
343.15 K, m1 = 0.1001	274.1 ± 8.4	–
343.15 K, m1 = 0.2002	273.7 ± 4.5	–
343.15 K, m1 = 0.4	271.09 ± 2.6	–
343.15 K, m1 = 0.599	277.9 ± 2.1	–
343.15 K, m1 = 0.8028	269.89 ± 1.7	–
343.15 K, m1 = 1	269.2 ± 1.5	–
348.15 K, m1 = 0.015	271 ± 52	974.89 ± 0.43
348.15 K, m1 = 0.04	268.3 ± 20	974.87 ± 0.43
348.15 K, m1 = 0.07	272.5 ± 12	974.87 ± 0.43
348.15 K, m1 = 0.1001	275.2 ± 8.4	974.82 ± 0.43
348.15 K, m1 = 0.2002	274.9 ± 4.5	974.63 ± 0.43
348.15 K, m1 = 0.4	272.57 ± 2.6	974.29 ± 0.43
348.15 K, m1 = 0.599	279.4 ± 2.1	974.05 ± 0.43
348.15 K, m1 = 0.8028	271.43 ± 1.7	973.79 ± 0.44
348.15 K, m1 = 1	270.73 ± 1.5	973.51 ± 0.44
353.15 K, m1 = 0.015	273 ± 52	–
353.15 K, m1 = 0.04	269.5 ± 20	–
353.15 K, m1 = 0.07	274 ± 12	–
353.15 K, m1 = 0.1001	276.3 ± 8.4	–
353.15 K, m1 = 0.2002	276 ± 4.5	–
353.15 K, m1 = 0.4	273.95 ± 2.6	–
353.15 K, m1 = 0.599	280.7 ± 2.1	–
353.15 K, m1 = 0.8028	272.85 ± 1.7	–
353.15 K, m1 = 1	272.12 ± 1.5	–
358.15 K, m1 = 0.015	274 ± 52	968.67 ± 0.46
358.15 K, m1 = 0.04	270.2 ± 20	968.65 ± 0.46
358.15 K, m1 = 0.07	275.5 ± 12	968.63 ± 0.46
358.15 K, m1 = 0.1001	277.5 ± 8.4	968.56 ± 0.46
358.15 K, m1 = 0.2002	277.2 ± 4.5	968.36 ± 0.46
358.15 K, m1 = 0.4	275.31 ± 2.6	967.97 ± 0.46
358.15 K, m1 = 0.599	281.9 ± 2.1	967.67 ± 0.46
358.15 K, m1 = 0.8028	274.18 ± 1.7	967.36 ± 0.46
358.15 K, m1 = 1	273.45 ± 1.5	967.06 ± 0.47
363.15 K, m1 = 0.015	276 ± 52	–
363.15 K, m1 = 0.04	270.5 ± 20	–
363.15 K, m1 = 0.07	277.1 ± 12	–
363.15 K, m1 = 0.1001	278.7 ± 8.4	–
363.15 K, m1 = 0.2002	278.5 ± 4.5	–
363.15 K, m1 = 0.4	276.62 ± 2.6	–
363.15 K, m1 = 0.599	283.1 ± 2	–
363.15 K, m1 = 0.8028	275.42 ± 1.7	–
363.15 K, m1 = 1	274.69 ± 1.5	–
368.15 K, m1 = 0.015	277 ± 52	961.97 ± 0.49
368.15 K, m1 = 0.04	270.9 ± 20	961.92 ± 0.49
368.15 K, m1 = 0.07	278.3 ± 12	961.9 ± 0.49
368.15 K, m1 = 0.1001	279.7 ± 8.4	961.83 ± 0.49
368.15 K, m1 = 0.2002	279.5 ± 4.5	961.62 ± 0.49
368.15 K, m1 = 0.4	277.76 ± 2.6	961.19 ± 0.49
368.15 K, m1 = 0.599	284.1 ± 2.1	960.81 ± 0.49
368.15 K, m1 = 0.8028	276.51 ± 1.7	960.43 ± 0.5
368.15 K, m1 = 1	275.75 ± 1.5	960.09 ± 0.5
373.15 K, m1 = 0.015	277 ± 52	–
373.15 K, m1 = 0.04	270.8 ± 20	–
373.15 K, m1 = 0.07	279.3 ± 12	–
373.15 K, m1 = 0.1001	280.7 ± 8.4	–
373.15 K, m1 = 0.2002	280.5 ± 4.5	–
373.15 K, m1 = 0.4	278.82 ± 2.6	–
373.15 K, m1 = 0.599	285.12 ± 2	–
373.15 K, m1 = 0.8028	277.53 ± 1.7	–
373.15 K, m1 = 1	276.77 ± 1.5	–
378.15 K, m1 = 0.015	275 ± 52	–
378.15 K, m1 = 0.04	270.6 ± 20	–
378.15 K, m1 = 0.07	280 ± 12	–
378.15 K, m1 = 0.1001	281.5 ± 8.4	–
378.15 K, m1 = 0.2002	281.4 ± 4.5	–
378.15 K, m1 = 0.4	279.75 ± 2.6	–
378.15 K, m1 = 0.599	286.01 ± 2	–
378.15 K, m1 = 0.8028	278.43 ± 1.6	–
378.15 K, m1 = 1	277.65 ± 1.4	–
383.15 K, m1 = 0.015	273 ± 52	–
383.15 K, m1 = 0.04	270.2 ± 20	–
383.15 K, m1 = 0.07	280.4 ± 12	–
383.15 K, m1 = 0.1001	282.2 ± 8.4	–
383.15 K, m1 = 0.2002	282.2 ± 4.5	–
383.15 K, m1 = 0.4	280.52 ± 2.6	–
383.15 K, m1 = 0.599	286.77 ± 2	–
383.15 K, m1 = 0.8028	279.21 ± 1.6	–
383.15 K, m1 = 1	278.41 ± 1.4	–
388.15 K, m1 = 0.015	273 ± 52	–
388.15 K, m1 = 0.04	270.5 ± 20	–
388.15 K, m1 = 0.07	281.2 ± 12	–
388.15 K, m1 = 0.1001	282.6 ± 8.4	–
388.15 K, m1 = 0.2002	282.8 ± 4.5	–
388.15 K, m1 = 0.4	281.15 ± 2.6	–
388.15 K, m1 = 0.599	287.45 ± 2	–
388.15 K, m1 = 0.8028	279.89 ± 1.6	–
388.15 K, m1 = 1	279.13 ± 1.4	–
393.15 K, m1 = 0.015	278 ± 52	–
393.15 K, m1 = 0.04	273.2 ± 20	–
393.15 K, m1 = 0.07	282.4 ± 12	–
393.15 K, m1 = 0.1001	281.9 ± 8.4	–
393.15 K, m1 = 0.2002	282.8 ± 4.5	–
393.15 K, m1 = 0.4	281.41 ± 2.6	–
393.15 K, m1 = 0.599	287.87 ± 2	–
393.15 K, m1 = 0.8028	280.37 ± 1.6	–
393.15 K, m1 = 1	279.71 ± 1.4	–
